The record followed here is ChEMBL document CHEMBL5214889, “Therapeutic progression of quinazolines as targeted chemotherapeutic agents” (Eur J Med Chem, 2021).

pEC50, pIC50: −log10 of the molar value.

Series [1] concerns HepG2. Description: Cytotoxicity against human HepG2 cells assessed as growth inhibition by MTT assay. It counts as functional, cell-based.
Series [2] is described as follows: Inhibition of PI3K (unknown origin) by ADP-Glo assay. Details: species or system Homo sapiens.
For another series, the species on record is Homo sapiens. Description: Activation of GABA receptor (unknown origin). The conditions noted are these: filed as activator.
The nature of series [3]: Cytotoxicity against rat C6 cells assessed as reduction in cell viability incubated for 48 hrs by MTT assay. The format is toxicity, cell-based.
The target of series [4] is Sterol 14-alpha demethylase (Trypanosoma cruzi (strain CL Brener), UniProt Q7Z1V1). Description: Inhibition of Trypanosoma cruzi Sterol 14-alpha demethylase.
Sterol 14-alpha demethylase, sequence (Q7Z1V1 whole entry): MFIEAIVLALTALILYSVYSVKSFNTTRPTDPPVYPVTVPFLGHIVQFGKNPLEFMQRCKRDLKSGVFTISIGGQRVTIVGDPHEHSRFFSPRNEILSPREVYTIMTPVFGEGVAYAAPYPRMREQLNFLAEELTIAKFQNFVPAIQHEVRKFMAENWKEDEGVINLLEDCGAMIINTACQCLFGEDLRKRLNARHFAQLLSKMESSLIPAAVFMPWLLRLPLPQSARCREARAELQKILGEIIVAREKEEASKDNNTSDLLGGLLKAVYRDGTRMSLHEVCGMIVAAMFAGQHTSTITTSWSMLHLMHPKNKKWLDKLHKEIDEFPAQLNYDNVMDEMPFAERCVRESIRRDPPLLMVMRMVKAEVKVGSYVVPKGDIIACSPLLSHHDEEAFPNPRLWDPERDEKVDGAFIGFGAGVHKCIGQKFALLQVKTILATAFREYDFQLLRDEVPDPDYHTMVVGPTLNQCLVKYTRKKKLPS
For series [5], the target named is Epidermal growth factor receptor (Homo sapiens, UniProt P00533). As to the kind of experiment: Inhibition of EGFR (unknown origin).
Series [6] concerns HepG2. Description: Cytotoxicity against human HepG2 cells assessed as cell growth inhibition incubated for 72 hrs by MTT assay. It counts as functional, cell-based. The note with it: HepG2, 72 h.
For series [7], the system named is K562. Description: Cytotoxicity against human K562 cells assessed as cell growth inhibition incubated for 72 hrs by MTT assay. The conditions noted are these: K562, 72 h. It counts as functional, cell-based.
A further series concerns KB. Description: Cytotoxicity against human KB cells assessed as cell growth inhibition incubated for 72 hrs by MTT assay. The format is functional, cell-based.
Another series has as its system HCT-8. Description: Cytotoxicity against human HCT-8 cells assessed as cell growth inhibition incubated for 72 hrs by MTT assay. It counts as functional, cell-based. The conditions noted are these: HCT-8, 72 h.
The subject of the next series is MDA-MB-231. As to the kind of experiment: Cytotoxicity against human MDA-MB-231 cells assessed as cell growth inhibition incubated for 72 hrs by MTT assay. It counts as functional, cell-based. The conditions noted are these: MDA-MB-231, 72 h.
For a further series, the target named is Tubulin. As to the kind of experiment: Inhibition of tubulin polymerization (unknown origin) incubated for 30 mins in presence of GTP by spectrophotometric analysis. It counts as protein-complex assay, Homo sapiens.
Series [8] concerns the target Phosphatidylinositol 4,5-bisphosphate 3-kinase catalytic subunit alpha isoform (Homo sapiens, UniProt P42336). Description: Inhibition of PI3Kalpha (unknown origin).
In a further series the target is Histone deacetylase. Description: Inhibition of HDAC (unknown origin). It counts as protein assay, Homo sapiens.
Another series deals with HCT-116. Description: Cytotoxicity against human HCT-116 cells. The format is functional, cell-based.
The test system of series [9] is K562. As to the kind of experiment: Cytotoxicity against human K562 cells. The format is functional, cell-based.
The test system of a further series is HuT78. Description: Cytotoxicity against human HuT78 cells. It counts as functional, cell-based.
Series [10] deals with Phosphatidylinositol 4,5-bisphosphate 3-kinase catalytic subunit gamma isoform (Homo sapiens, UniProt P48736). Description: Inhibition of PI3Kgamma (unknown origin).
Phosphatidylinositol 4,5-bisphosphate 3-kinase catalytic subunit gamma isoform, sequence (P48736 whole entry, canonical isoform): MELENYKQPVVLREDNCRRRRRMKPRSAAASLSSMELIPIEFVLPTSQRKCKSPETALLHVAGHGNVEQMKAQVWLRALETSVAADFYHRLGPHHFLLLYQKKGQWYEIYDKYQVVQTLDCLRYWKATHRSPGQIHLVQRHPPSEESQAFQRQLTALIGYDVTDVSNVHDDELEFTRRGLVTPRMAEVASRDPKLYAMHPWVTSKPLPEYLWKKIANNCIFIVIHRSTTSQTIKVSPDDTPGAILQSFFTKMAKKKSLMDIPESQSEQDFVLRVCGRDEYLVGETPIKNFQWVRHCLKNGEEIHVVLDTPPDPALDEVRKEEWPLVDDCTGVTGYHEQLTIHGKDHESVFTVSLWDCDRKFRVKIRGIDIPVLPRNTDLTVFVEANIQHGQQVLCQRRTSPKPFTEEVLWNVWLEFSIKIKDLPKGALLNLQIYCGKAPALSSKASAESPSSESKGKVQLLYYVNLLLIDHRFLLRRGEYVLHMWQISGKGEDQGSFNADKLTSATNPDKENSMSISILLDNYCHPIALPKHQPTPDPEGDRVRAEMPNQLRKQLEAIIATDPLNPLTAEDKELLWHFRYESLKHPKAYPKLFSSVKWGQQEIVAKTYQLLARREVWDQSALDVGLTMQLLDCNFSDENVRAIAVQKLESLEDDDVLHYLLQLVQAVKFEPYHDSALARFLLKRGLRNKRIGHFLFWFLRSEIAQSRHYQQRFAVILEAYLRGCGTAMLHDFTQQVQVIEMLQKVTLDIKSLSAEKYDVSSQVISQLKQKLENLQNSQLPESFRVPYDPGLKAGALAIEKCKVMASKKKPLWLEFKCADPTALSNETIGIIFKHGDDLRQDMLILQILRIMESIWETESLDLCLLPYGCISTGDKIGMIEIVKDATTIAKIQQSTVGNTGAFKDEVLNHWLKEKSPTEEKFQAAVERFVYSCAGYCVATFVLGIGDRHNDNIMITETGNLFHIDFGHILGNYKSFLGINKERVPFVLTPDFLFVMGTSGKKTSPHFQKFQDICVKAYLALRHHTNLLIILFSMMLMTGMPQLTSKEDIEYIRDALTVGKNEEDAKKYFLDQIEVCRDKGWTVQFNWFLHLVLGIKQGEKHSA
Series [11] has as its target Vascular endothelial growth factor receptor 2 (Homo sapiens, UniProt P35968). Description: Inhibition of VEGFR-2 (unknown origin) using poly(Glu:Tyr)(4:1) and ATP as substrate by incubated for 1 hr by spectrophotometric based ELISA.
Series [12] can be described thus: Cytotoxicity against human HUVEC cells assessed as cell growth inhibition incubated for 72 hrs by SRB assay. The format is toxicity, cell-based.
The nature of series [13]: Inhibition of COX (unknown origin). Details: species or system Homo sapiens.
Series [14] can be described thus: Inhibition of PDE2 (unknown origin). Details: species or system Homo sapiens.
The target in series [15] is T1, Adrenergic receptor alpha-1 (Homo sapiens, UniProt P35348+P25100+P35368).
T1 sequence (P35348 whole entry): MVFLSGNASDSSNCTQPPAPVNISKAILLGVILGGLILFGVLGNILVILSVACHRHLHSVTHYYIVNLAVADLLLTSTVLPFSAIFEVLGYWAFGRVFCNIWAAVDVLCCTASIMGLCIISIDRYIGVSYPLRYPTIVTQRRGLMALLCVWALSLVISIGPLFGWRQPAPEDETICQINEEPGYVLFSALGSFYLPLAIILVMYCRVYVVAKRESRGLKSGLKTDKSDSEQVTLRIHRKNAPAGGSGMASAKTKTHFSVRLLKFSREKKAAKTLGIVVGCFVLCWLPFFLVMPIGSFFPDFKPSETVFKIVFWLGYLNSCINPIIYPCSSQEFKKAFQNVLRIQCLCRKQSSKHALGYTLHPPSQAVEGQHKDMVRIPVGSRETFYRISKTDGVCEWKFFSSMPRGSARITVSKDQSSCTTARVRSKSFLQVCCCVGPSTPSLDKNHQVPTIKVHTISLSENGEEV
T1 sequence (P25100 whole entry): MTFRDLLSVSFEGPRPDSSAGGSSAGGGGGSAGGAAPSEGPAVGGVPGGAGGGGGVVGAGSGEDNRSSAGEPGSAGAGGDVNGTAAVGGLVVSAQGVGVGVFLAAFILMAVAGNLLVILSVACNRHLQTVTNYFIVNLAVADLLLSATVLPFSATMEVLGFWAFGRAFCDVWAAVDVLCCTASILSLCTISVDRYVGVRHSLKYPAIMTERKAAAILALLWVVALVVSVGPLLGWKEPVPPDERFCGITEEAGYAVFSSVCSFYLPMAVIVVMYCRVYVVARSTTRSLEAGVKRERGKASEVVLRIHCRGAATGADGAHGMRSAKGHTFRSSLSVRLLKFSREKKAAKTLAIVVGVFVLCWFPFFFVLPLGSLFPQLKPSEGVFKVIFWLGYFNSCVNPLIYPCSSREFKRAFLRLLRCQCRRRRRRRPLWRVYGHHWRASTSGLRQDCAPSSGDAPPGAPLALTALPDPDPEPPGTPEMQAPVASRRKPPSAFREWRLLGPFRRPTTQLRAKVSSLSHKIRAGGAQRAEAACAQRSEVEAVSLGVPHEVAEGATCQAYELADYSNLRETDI
T1 sequence (P35368 whole entry): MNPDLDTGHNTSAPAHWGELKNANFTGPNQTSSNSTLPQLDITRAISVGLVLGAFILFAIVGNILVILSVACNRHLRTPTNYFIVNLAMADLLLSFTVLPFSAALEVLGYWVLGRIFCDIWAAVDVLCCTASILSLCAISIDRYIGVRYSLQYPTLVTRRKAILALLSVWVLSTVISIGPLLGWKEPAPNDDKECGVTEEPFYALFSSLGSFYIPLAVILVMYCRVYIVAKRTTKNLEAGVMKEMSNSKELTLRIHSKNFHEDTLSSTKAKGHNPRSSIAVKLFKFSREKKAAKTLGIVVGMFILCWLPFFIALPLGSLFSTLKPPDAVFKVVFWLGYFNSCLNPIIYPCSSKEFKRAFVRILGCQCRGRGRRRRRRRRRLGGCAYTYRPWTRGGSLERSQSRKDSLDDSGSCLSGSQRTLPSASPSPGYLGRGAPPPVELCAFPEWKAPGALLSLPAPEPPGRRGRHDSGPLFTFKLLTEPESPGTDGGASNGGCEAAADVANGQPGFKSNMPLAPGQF
Description: Antagonist activity at Adrenergic alpha-1 receptor (unknown origin). The format is functional.

For a further series, the system named is MOLM-13. Description: Cytotoxicity against human MOLM-13 cells assessed as cell growth inhibition incubated for 72 hrs by MTS assay. The conditions noted are these: MOLM-13, 72 h. It counts as functional, cell-based.
The subject of the next series is MV4-11. As to the kind of experiment: Cytotoxicity against human MV4-11 cells assessed as cell growth inhibition incubated for 72 hrs by MTS assay. The conditions noted are these: MV4-11, 72 h. It counts as functional, cell-based.
The next series addresses T2, Proline--tRNA ligase (Plasmodium falciparum (isolate 3D7), UniProt Q8I5R7).
T2 sequence (Q8I5R7 whole entry): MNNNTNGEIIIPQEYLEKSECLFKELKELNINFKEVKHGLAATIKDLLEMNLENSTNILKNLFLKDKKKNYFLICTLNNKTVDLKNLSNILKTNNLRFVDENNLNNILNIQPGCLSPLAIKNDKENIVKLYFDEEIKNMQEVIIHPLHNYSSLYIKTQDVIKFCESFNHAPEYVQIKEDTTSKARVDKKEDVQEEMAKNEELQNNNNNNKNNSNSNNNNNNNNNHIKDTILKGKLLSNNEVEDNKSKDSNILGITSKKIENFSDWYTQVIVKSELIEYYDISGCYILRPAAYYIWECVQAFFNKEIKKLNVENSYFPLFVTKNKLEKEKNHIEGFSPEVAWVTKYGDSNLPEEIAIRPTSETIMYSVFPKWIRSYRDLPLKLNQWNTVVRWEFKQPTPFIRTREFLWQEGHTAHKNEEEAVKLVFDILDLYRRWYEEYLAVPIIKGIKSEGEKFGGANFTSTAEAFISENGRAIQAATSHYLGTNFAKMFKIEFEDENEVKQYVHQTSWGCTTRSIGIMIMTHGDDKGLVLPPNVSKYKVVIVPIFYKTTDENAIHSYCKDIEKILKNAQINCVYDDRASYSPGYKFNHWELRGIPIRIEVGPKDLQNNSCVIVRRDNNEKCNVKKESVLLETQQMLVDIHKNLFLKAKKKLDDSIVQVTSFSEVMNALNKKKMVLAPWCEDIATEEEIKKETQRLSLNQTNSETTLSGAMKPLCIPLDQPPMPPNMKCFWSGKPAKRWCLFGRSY
Description: Inhibition of Plasmodium falciparum 3D7 Prolyl-tRNA synthetase.

Vascular endothelial growth factor receptor 2, sequence (P35968 whole entry): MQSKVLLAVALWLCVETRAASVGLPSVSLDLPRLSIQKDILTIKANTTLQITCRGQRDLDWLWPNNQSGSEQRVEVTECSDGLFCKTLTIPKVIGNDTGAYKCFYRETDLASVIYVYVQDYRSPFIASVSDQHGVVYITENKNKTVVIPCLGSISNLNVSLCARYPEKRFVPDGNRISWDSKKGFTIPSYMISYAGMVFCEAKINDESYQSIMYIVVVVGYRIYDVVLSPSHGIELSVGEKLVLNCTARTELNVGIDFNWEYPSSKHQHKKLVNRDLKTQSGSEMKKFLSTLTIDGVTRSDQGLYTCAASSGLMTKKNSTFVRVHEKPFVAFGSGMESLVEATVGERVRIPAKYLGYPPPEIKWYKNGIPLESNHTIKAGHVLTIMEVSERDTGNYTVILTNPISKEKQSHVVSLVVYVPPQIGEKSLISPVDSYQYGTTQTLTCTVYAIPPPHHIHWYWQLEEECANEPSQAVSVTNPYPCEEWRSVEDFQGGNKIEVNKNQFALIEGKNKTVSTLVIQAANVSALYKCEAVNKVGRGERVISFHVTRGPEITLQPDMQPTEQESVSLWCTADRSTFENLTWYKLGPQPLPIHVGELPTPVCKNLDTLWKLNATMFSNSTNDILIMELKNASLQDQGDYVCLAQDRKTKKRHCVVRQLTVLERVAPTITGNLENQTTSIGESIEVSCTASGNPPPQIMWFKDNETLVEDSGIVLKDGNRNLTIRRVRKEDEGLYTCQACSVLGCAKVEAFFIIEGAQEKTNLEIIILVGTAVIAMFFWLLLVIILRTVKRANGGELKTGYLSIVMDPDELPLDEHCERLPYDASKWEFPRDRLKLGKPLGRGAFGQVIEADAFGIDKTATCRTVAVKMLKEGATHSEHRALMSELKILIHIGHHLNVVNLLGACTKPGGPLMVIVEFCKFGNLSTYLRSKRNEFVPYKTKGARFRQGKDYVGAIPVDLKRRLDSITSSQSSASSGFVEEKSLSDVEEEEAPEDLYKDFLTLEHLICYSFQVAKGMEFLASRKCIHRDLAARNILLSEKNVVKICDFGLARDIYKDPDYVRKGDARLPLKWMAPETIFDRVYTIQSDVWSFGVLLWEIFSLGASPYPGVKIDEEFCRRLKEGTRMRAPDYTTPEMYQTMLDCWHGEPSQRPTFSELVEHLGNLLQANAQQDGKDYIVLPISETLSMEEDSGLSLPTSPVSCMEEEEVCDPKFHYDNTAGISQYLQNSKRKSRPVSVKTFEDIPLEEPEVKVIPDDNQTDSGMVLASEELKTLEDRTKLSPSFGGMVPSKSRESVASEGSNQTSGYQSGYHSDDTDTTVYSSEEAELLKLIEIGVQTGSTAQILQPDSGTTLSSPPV
Phosphatidylinositol 4,5-bisphosphate 3-kinase catalytic subunit alpha isoform, sequence (P42336 whole entry, canonical isoform): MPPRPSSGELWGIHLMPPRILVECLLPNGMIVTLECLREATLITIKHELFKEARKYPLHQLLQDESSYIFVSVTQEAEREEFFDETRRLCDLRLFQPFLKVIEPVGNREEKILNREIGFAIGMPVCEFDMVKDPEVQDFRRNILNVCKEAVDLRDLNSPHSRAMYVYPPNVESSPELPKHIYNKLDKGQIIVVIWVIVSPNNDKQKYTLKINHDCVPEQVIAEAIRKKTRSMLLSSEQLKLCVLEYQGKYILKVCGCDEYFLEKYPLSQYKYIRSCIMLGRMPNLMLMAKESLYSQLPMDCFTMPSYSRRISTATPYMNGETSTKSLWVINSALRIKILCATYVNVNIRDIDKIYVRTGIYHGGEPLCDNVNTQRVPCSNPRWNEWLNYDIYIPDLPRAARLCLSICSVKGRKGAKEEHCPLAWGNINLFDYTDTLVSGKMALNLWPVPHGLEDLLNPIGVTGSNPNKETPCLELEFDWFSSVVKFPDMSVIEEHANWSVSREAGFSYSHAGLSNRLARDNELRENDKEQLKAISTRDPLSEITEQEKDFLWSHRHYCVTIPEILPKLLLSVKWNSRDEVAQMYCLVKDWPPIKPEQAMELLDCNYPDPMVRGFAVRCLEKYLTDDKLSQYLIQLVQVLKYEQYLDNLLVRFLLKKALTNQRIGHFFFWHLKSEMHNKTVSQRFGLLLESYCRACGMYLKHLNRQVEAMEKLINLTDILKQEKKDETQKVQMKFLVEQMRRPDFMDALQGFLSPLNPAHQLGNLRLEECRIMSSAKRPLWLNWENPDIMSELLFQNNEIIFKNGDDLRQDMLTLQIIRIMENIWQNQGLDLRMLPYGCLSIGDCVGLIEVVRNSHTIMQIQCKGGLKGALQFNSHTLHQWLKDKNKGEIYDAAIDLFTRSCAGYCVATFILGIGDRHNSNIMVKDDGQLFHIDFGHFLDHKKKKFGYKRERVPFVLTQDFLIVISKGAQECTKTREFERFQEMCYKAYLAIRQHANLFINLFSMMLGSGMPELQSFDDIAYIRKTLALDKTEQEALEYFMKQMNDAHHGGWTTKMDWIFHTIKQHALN

In the case of `COc1cccc2c1C(=O)c1c(O)c3c(c(O)c1C2=O)C[C@@](O)(C(=O)CO)C[C@@H]3O[C@H]1C[C@H](N)[C@H](O)[C@H](C)O1` [DOXORUBICIN], the negative logarithm of the IC50 (pIC50) in the series with HepG2 [1] was 4.22.

With `COc1cc(C2Sc3ccccc3C(=O)N2NC(=O)c2ccc(-n3c(-c4ccncc4)nc4ccccc4c3=O)cc2)ccc1O` (centres undefined), the pIC50 in the series on HepG2 [1] was 4.22; in series [2], 4.50.

As to `Cc1ccccc1-n1c(C)nc2ccccc2c1=O`, the 50% effect level in the series filed under Homo sapiens (ED50) was put at a dose of 400 µmol/kg.

Turning to `OC1Nc2ccccc2-c2cc(-c3ccc(Cl)cc3)nn21` (centres undefined), the half-inhibitory concentration (IC50) at 48 h in series [3] was 3860 nM.

With `COc1cc([C@@H]2c3cc4c(cc3[C@@H](O[C@@H]3O[C@@H]5CO[C@@H](C)O[C@H]5[C@H](O)[C@H]3O)[C@H]3COC(=O)[C@H]23)OCO4)cc(OC)c1O` [ETOPOSIDE], the concentration for half-maximal inhibition (IC50) at 48 h in series [3] was 4320 nM.

For the compound `C[C@@H](n1cnc2cc(Cl)ccc2c1=O)[C@](O)(Cn1cncn1)c1ccc(F)cc1F` [ALBACONAZOLE], the pIC50 in [4] was 9.00.

In series [5], `Cc1ccc2c(-c3ccccc3)nc(=O)n(C(C)C)c2c1` [PROQUAZONE] gave a negative logarithm of the IC50 (pIC50) of 8.70.

For the compound `O=c1cc(N2CCOCC2)oc2c(-c3ccccc3)cccc12` [LY-294002], the pIC50 in series [2] was 4.24.

For the compound `COc1ccc(N(C)c2nc(NCc3cccnc3)nc3ccccc23)cc1`, the pIC50 in the series with HepG2 [6] was 6.96; in the series with K562 [7], 6.96; with KB it was 6.96; in the series on HCT-8, 6.96; with MDA-MB-231, 6.96; on Tubulin it was 5.61.

As for `O=C(CCCCCOc1ccc2c(c1)N=C(NC(=O)c1ccccc1)N1CCN=C21)NO`, the pIC50 in [8] is 8.53; in the series on HCT-116, 6.48; in the series on K562 [9], 7.02; in the series with HuT78 it was 7.21. In addition, the IC50 at Histone deacetylase stood at 50 nM.

For the compound `NC(=O)c1cc(-c2ccc3ncnc(-c4cccc(C(=O)NCCN5CCOCC5)c4)c3c2)ccc1Cl`, the pIC50 in series [10] is 7.77.

For the compound `COc1cc2ncnc(-n3ncc4cc(NC(=O)Nc5ccc(C)c(Cl)c5)ccc43)c2cc1OC`, the pIC50 in series [11] was 7.92. Besides, the concentration for half-maximal inhibition (IC50) at 72 h in [12] came out at 1800 nM.

In [13], `COc1cc2nc(N3CCN(C(=O)c4ccco4)CC3)nc(N)c2cc1OC` [PRAZOSIN] showed a pIC50 of 5.72.

For the compound `O=C1CN2Cc3c(ccc(Cl)c3Cl)N=C2N1` [ANAGRELIDE], in series [14], the pIC50 was 7.59.

`CCCC(=O)N1CCCN(c2nc(N)c3cc(OC)c(OC)cc3n2)CC1` [BUNAZOSIN] had a 50% inhibitory concentration (IC50) in [15] of 1.22 nM.

For `CN(C)CCCOc1ccc2c(NCCc3cnc(NC(=O)Nc4cccc(Cl)c4)s3)ncnc2c1`, the negative logarithm of the EC50 (pEC50) in the series with MOLM-13 and in the series with MV4-11 was 8.30 each time.

`O=C(C[C@H]1NCCC[C@@H]1O)Cn1cnc2ccccc2c1=O`: the pEC50 on Proline--tRNA ligase was 8.40.
